Starred links: 1 amine or outer side, 2 acyl side, 3 side chain; linkers in the order of their positions; H or OH if unused. Positions of bridges follow the written chain, without caps; N, C: chain ends. Non-standard residues stand in square brackets, D forms with d. Residues, ends and D or L forms follow the SMILES beside them. X1 = O=C([C@@H]1C[C@H](n2cc(C3=CC=C[CH]3[Fe][CH]3C=CC=C3)nn2)CN1[*:1])[*:2]
Assays:
[1] = system: HIV-1 gp120; conditions: for Activity in SPR competition binding to gp120 (in words): dual receptor site (sCD4 and 17b) inhibition
[2] = system: trypsin; conditions: 37 °C, 5-hour incubation
[3] = system: chymotrypsin

| Compound | Enhancement of activity of macrocycle 7 vs 2 ([1]; SPR, shorter green linker (Asp instead of Glu)) | Stability to trypsin (in words) [2] | Stability to chymotrypsin (in words) ([3]; 37 °C, 5-hour incubation) | Stability to chymotrypsin (in words), 30 min ([3]; 37 °C, 30 minute incubation) | Intactness after chymotrypsin digestion (in words), 40 h ([3]; 40 h incubation, HPLC and ESI-MS) | Activity in SPR competition binding to gp120 (in words) [1] |
| --- | --- | --- | --- | --- | --- | --- |
| CC[C@H](C)[C@@H]1NC(=O)[C@H](CC(N)=O)NC(=O)[C@@H](N)CC(=O)NCCCC[C@@H](C(N)=O)NC(=O)[C@H](Cc2c[nH]c3ccccc23)NC(=O)[C@@H]2C[C@H](n3cc(CCc4ccccc4)nn3)CN2C1=O [Compound 7] | almost two-fold enhanced activity | completely resistant | completely resistant | almost unchanged | remained intact |  |
| CC[C@H](C)[C@H](N)C(=O)N[C@H]1CCC(=O)NCCCC[C@@H](C(N)=O)NC(=O)[C@H](Cc2c[nH]c3ccccc23)NC(=O)[C@@H]2C[C@H](n3cc(C4=CC=C[CH]4[Fe][CH]4C=CC=C4)nn3)CN2C(=O)[C@H]([C@@H](C)CC)NC(=O)[C@H](CC(N)=O)NC1=O (stereo partly shown) [Compound 4] (H-IENI[X1]WK-NH2; lactam 2-7; N-terminus and C-terminus assumed) |  |  |  |  |  | enhanced dual receptor site antagonizing activities compared to their non-ferrocene analogues |
| CC[C@H](C)[C@@H]1NC(=O)[C@H](CC(N)=O)NC(=O)[C@@H](N)CC(=O)NCCCC[C@@H](C(N)=O)NC(=O)[C@H](Cc2c[nH]c3ccccc23)NC(=O)[C@@H]2C[C@H](n3cc(C4=CC=C[CH]4[Fe][CH]4C=CC=C4)nn3)CN2C1=O (stereo partly shown) [Compound 9] (H-DNI[X1]WK-NH2; lactam 1-6; C-terminus assumed) |  |  |  |  |  | enhanced dual receptor site antagonizing activities compared to their non-ferrocene analogues |
